Counter-ions that a name gives are not always drawn. Like-named read-outs stand apart in the source and are kept apart here.
What was measured:
[1] = meals 517 to 759 Kcal, 153 to 313 Kcal from fat; cited from earlier work
[2] = Example 2: phase 1 crossover 3×3 study, fixed kilocalorie meal at 20% and 50% fat, single-dose pharmacokinetics of nelfinavir 250 mg tablets; assay type: in vivo, human (normal, healthy volunteers); details: for AUC / AUC(0-inf) / Cmax / AUC(0-t) / half-life / Tmax: human, plasma, oral, 1250 mg; for AUC: read-out: Nelfinavir AUC24; for AUC(0-t): read-out: AUC(0-tlqc), least-squares mean
Procedure: A study was conducted as a phase 1, randomized, open-label, crossover 3×3 study, designed to evaluate the impact of a fixed kilocalorie meal at 20% and 50% fat content on single-dose pharmacokinetic parameters of the nelfinavir 250 mg tablet formulation in normal, healthy volunteers. Subjects were dosed with 1250 mg of nelfinavir 3 times at one-week intervals and 24-hour PK profiles were collected following each of the doses. Each subject was assigned three meals with different fat contents prior to dosing (fasting, 500kcal with 20% fat, 500 kcal with 50% fat) using a Latin square design. Twenty-four subjects entered the study and twenty-two subjects completed it. Each subject received the following treatment in random order on Days 1, 8 and 15: 5×250 mg nelfinavir tablets with fasting; 5×250 mg nelfinavir tablets, with a meal comprising 500Kcal/20% fat; and 5×250 mg nelfinavir tablets with a meal having 500 Kcal/50% fat. The moderate calorie/low fat meal consisted of 500 Kcal with 20% fat (11.3 grams of fat). The moderate calorie/high fat meal consisted of 500 Kcal with 50% fat (27.8 grams of fat). Subjects were administered nelfinavir 1250-mg (five 250-mg tablets) on the morning of the pharmacokinetic evaluations. The nelfinavir terminal half-life (t½) in plasma is typically 3.5 to 5 hours. […] Subjects participated on an outpatient basis; however, subjects were admitted to the in-patient facility the evening prior to each PK evaluation and remained in the in-patient facility for approximately 16 hours post-dosing. The subjects returned the next morning (8 hours later) for their last 24 hr. pharmacokinetic blood draw. All pharmacokinetic evaluations were performed in the in-patient facility. Blood samples were collected and analyzed for plasma concentrations of nelfinavir and M8. For the fasting evaluation, subjects were required to complete an overnight fast of at least 10 hours prior to dosing in the morning. For the fed PK evaluations, subjects were required to complete an overnight fast of at least 10 hours, prior to receiving the protocol-specific standardized breakfast meal. Subjects were given 30 minutes to complete their standardized breakfast meal. Dosing was performed in the morning, immediately following the subject's completion of the standardized breakfast meal and after the subject's predose PK specimen had been collected. Subjects could not ingest water 1 hour prior to or 1 hour after dosing. A standardized lunch was given at least 4 hours after the morning dose and a standardized dinner was given at least 10 hours after the morning dose. Actual sampling times were used for all data evaluation. Mean Cmax and AUC values were calculated as the antilogs of least-squares mean log-transformed values (analogous to geometric means). Ratios and confidence intervals for Cmax and AUC values are also based on log-transformed values. Mean values for all other pharmacokinetic parameters are least-squares means. Ratios and confidence intervals for these parameters are based on untransformed values. Blood samples, 5 mL each, were collected as in Example 1. The timing of each sample collection was as follows: Predose and at 0.5, 1, 2, 3, 4, 6, 8, 12, 16 and 24 hours postdose on Days 1, 8, and 15. All blood samples were kept at […] (using either wet ice or cryoblock) until centrifugation. Blood samples were centrifuged within 1 hour of collection, at 3000 rpm (approximately 2619×g) for 15 minutes, to separate the plasma. The plasma samples were split evenly into 2 aliquots and stored in appropriately labeled polypropylene transport tubes. Plasma was stored frozen at […] or lower until analysis. Pharmacokinetic parameter values were calculated from plasma nelfinavir and M8 concentration-time data using standard noncompartmental pharmacokinetic methods as in Example 1. Plasma concentrations of nelfinavir and M8 were measured by validated high-performance liquid chromatography (HPLC) methods. […]

[3] = cited from earlier work
[4] = light breakfast 350 kcal/13 g fat vs standard breakfast 800 kcal/35 g fat; cited from earlier work
[5] = nelfinavir and nelfinavir plus M8; full breakfast 610 kcal vs light breakfast 271 kcal; once-daily with low-dose ritonavir; cited from earlier work
[6] = Kcal/Fat % 500/20% relative to fasting
[7] = Kcal/Fat % 500/50% relative to fasting
[8] = nelfinavir, moderate calorie/high fat meal (500 Kcal/50% fat) vs fasting
[9] = nelfinavir, moderate calorie/low fat meal (500 Kcal/20% fat) vs fasting

Nelfinavir AUC24 (×fasting) [2, 6]: 3.2 X | Nelfinavir AUC∞ (×fasting) [2, 6]: 3.0 X | Nelfinavir Cmax (×fasting) [2, 6]: 2.5 X | Nelfinavir AUC24 (×fasting) [2, 7]: 5.2 X | Nelfinavir AUC∞ (×fasting) [2, 7]: 5.1 X | Nelfinavir Cmax (×fasting) [2, 7]: 3.8 X | AUC ([2]; 1250 mg single dose, fasting): 10000 ng·h/mL | AUC(0-inf) ([2]; 1250 mg single dose, fasting, read-out: Nelfinavir AUC∞): 10700 ng·h/mL | Cmax ([2]; 1250 mg single dose, fasting, read-out: Nelfinavir Cmax): 1630 ng/mL | AUC ([2]; Kcal/Fat % 500/20%): 32600 ng·h/mL | AUC(0-inf) ([2]; Kcal/Fat % 500/20%, read-out: Nelfinavir AUC∞): 32700 ng·h/mL | Cmax ([2]; Kcal/Fat % 500/20%, read-out: Nelfinavir Cmax): 4000 ng/mL | AUC ([2]; Kcal/Fat % 500/50%): 52600 ng·h/mL | AUC(0-inf) ([2]; Kcal/Fat % 500/50%, read-out: Nelfinavir AUC∞): 54600 ng·h/mL | Cmax ([2]; Kcal/Fat % 500/50%, read-out: Nelfinavir Cmax): 6200 ng/mL | AUC(0-t) ([2]; nelfinavir, 5×250-mg tablets during moderate calorie/high fat meal (500 Kcal/50% fat)): 52600 ng·h/mL | AUC(0-inf) ([2]; nelfinavir, 5×250-mg tablets during moderate calorie/high fat meal (500 Kcal/50% fat), read-out: AUC(0-∞), least-squares mean): 54600 ng·h/mL | Cmax ([2]; nelfinavir, 5×250-mg tablets during moderate calorie/high fat meal (500 Kcal/50% fat), read-out: Cmax, least-squares mean): 6160 ng/mL | half-life ([2]; nelfinavir, 5×250-mg tablets during moderate calorie/high fat meal (500 Kcal/50% fat), read-out: t1/2 (terminal half-life), least-squares mean (converted)): 3.43 h | Tmax ([2]; nelfinavir, 5×250-mg tablets during moderate calorie/high fat meal (500 Kcal/50% fat), read-out: tmax, least-squares mean): 4.48 h | AUC(0-t) ([2]; nelfinavir, 5×250-mg tablets during moderate calorie/low fat meal (500 Kcal/20% fat)): 32600 ng·h/mL | AUC(0-inf) ([2]; nelfinavir, 5×250-mg tablets during moderate calorie/low fat meal (500 Kcal/20% fat), read-out: AUC(0-∞), least-squares mean): 32700 ng·h/mL | Cmax ([2]; nelfinavir, 5×250-mg tablets during moderate calorie/low fat meal (500 Kcal/20% fat), read-out: Cmax, least-squares mean): 4040 ng/mL | half-life ([2]; nelfinavir, 5×250-mg tablets during moderate calorie/low fat meal (500 Kcal/20% fat), read-out: t1/2 (terminal half-life), least-squares mean (converted)): 3.08 h | Tmax ([2]; nelfinavir, 5×250-mg tablets during moderate calorie/low fat meal (500 Kcal/20% fat), read-out: tmax, least-squares mean): 4.19 h | AUC(0-t) ([2]; nelfinavir, 5×250-mg tablets single dose, fasting (reference)): 10000 ng·h/mL | AUC(0-inf) ([2]; nelfinavir, 5×250-mg tablets single dose, fasting (reference), read-out: AUC(0-∞), least-squares mean): 10700 ng·h/mL | Cmax ([2]; nelfinavir, 5×250-mg tablets single dose, fasting (reference), read-out: Cmax, least-squares mean): 1630 ng/mL | half-life ([2]; nelfinavir, 5×250-mg tablets single dose, fasting (reference), read-out: t1/2 (terminal half-life), least-squares mean (converted)): 4.1 h | Tmax ([2]; nelfinavir, 5×250-mg tablets single dose, fasting (reference), read-out: tmax, least-squares mean): 2.42 h | half-life ([2]; nelfinavir, fasting subjects and test meals, similar, read-out: elimination t½, average (converted)): ~4 h | Tmax ([2]; nelfinavir, meal of 20% fat content (500 kcal), read-out: mean tmax longer relative to fasting subjects): ~2 h | Tmax ([2]; nelfinavir, meal of 50% fat content (500 kcal), read-out: mean tmax longer relative to fasting subjects): ~2 h | AUC increase compared to the fasting AUC ([2]; nelfinavir, 500 Kcal, 50% fat breakfast): 5.2 fold | AUC increase compared to the fasting AUC ([2]; nelfinavir, 500 kcal, 20% fat breakfast): 3.2 fold | % coefficient of variation (CV) for AUC(0-∞) ([2]; nelfinavir, fasting subjects): 75% | bioavailability higher relative to fasting subjects, based on AUC(0-∞) ([2]; nelfinavir, meal containing 20% fat (500 kcal)): approximately 3 fold | bioavailability higher relative to fasting subjects, based on AUC(0-∞) ([2]; nelfinavir, meal containing 50% fat (500 kcal)): ~5 fold | mean Cmax higher relative to fasting ([2]; nelfinavir, meal of 20% fat content (500 kcal)): approximately 2.5 fold | mean Cmax higher relative to fasting ([2]; nelfinavir, meal of 50% fat content (500 kcal)): ~3.8 fold | AUC(0-tlqc) ratio (100% × test/reference) [2, 8]: 524% | AUC(0-∞) ratio (100% × test/reference) [2, 8]: 508% | Cmax ratio (100% × test/reference) [2, 8]: 378% | t1/2 ratio (100% × test/reference) [2, 8]: 83.7% | tmax ratio (100% × test/reference) [2, 8]: 186% | AUC(0-tlqc) ratio (100% × test/reference) [2, 9]: 325% | AUC(0-∞) ratio (100% × test/reference) [2, 9]: 305% | Cmax ratio (100% × test/reference) [2, 9]: 248% | t1/2 ratio (100% × test/reference) [2, 9]: 75.0% | tmax ratio (100% × test/reference) [2, 9]: 173% | % coefficient of variation (CV) for AUC(0-∞) ([2]; nelfinavir, test meal containing 20% fat): 48% | % coefficient of variation (CV) for AUC(0-∞) ([2]; nelfinavir, test meal containing 50% fat): 43%
SMILES: Cc1c(O)cccc1C(=O)N[C@@H](CSc1ccccc1)[C@H](O)CN1C[C@H]2CCCC[C@H]2C[C@H]1C(=O)NC(C)(C)C (relative stereo) [nelfinavir, [3S-(3R*, 4aR*, 8aR*, 2′S*, 3′S*)]-2-[2′ hydroxy-3′-phenylthiomethyl-4′-aza-5′-oxo-5′-(2″-methyl-3″-hydroxy-phenyl)pentyl]-decahydroiso-quinoline-3-N-t-butylcarboxamide methanesulfonic acid salt]
AUC, fed compared to fasting [1]: two to three-fold higher | maximum plasma concentrations, fed compared to fasting [1]: two to three-fold higher | oral bioavailability ([3]; animals fasted overnight): 29% | oral bioavailability ([3]; fed rats, dogs and monkeys (meal 30 minutes before drug administration)): 43% | AUC0-12h less with light breakfast than with standard breakfast [4]: 13% | effect of the two breakfasts on C1-hour post dose, Cmax and C12-hours [4]: No significant effects | effect of meal consumption on AUC24h, corr and Cmin [5]: significant effect

— patent US20040186066A1, “Method of treatment with nelfinavir” (AGOURON PHARMACEUTICALS, INC., priority 2003, published 2004)
